Assay results reported in BindingDB's records for doi:10.1021/acs.jmedchem.8b00789 (Laval University, 2018).
pEC50: −log10 of the molar value.

What was measured:
[1] = Antagonist activity at UT receptor in Sprague-Dawley rat thoracic aortic ring assessed as reduction in urotensin-2-induced contraction by measuring pEC50 for human urotensin-2-induced contraction at 1 uM pre-incubated for 30 mins before urotensin-2 stimulation (Rvb = 8.59 +/- 0.12 No_unit)
[2] = Antagonist activity at UT receptor in Sprague-Dawley rat thoracic aortic ring assessed as reduction in URP-induced contraction by measuring pEC50 for human urotensin-2-induced contraction at 1 uM pre-incubated for 30 mins before urotensin-2 stimulation (Rvb = 8.16 +/- 0.08 No_unit)
[3] = Antagonist activity at UT receptor in Sprague-Dawley rat thoracic aortic ring assessed as reduction in urotensin-2-induced contraction by measuring pEC50 for human urotensin-2-induced contraction at 1 x 10^-7M uM pre-incubated for 30 mins before urotensin-2 stimulation (Rvb = 8.59 +/- 0.12 No_unit)
[4] = Antagonist activity at UT receptor in Sprague-Dawley rat thoracic aortic ring assessed as reduction in URP-induced contraction by measuring pEC50 for human urotensin-2-induced contraction at 1 x 10^-7M pre-incubated for 30 mins before urotensin-2 stimulation (Rvb = 8.16 +/- 0.08 No_unit)
[5] = Antagonist activity at UT receptor in Sprague-Dawley rat thoracic aortic ring assessed as reduction in urotensin-2-induced contraction by measuring pEC50 for human urotensin-2-induced contraction at 1 x 10^-8M uM pre-incubated for 30 mins before urotensin-2 stimulation (Rvb = 8.59 +/- 0.12 No_unit)
[6] = Antagonist activity at UT receptor in Sprague-Dawley rat thoracic aortic ring assessed as reduction in URP-induced contraction by measuring pEC50 for human urotensin-2-induced contraction at 3 x 10^-10M pre-incubated for 30 mins before urotensin-2 stimulation (Rvb = 8.16 +/- 0.08 No_unit)

SMILES | pEC50 [1] | pEC50 [2] | pEC50 [3] | pEC50 [4] | pEC50 [5] | pEC50 [6]
CC(C)[C@H](NC(=O)[C@@H]1CSSC[C@H](NC(=O)[C@@H](N)CC(=O)O)C(=O)N[C@H](Cc2ccc(I)cc2)C(=O)N[C@@H](Cc2c[nH]c3ccccc23)C(=O)N[C@@H](CCCCN)C(=O)N[C@@H](Cc2ccc(O)cc2)C(=O)N1)C(=O)O | 8.96 | 7.92 |  |  |  | 
CC(C)[C@H](NC(=O)[C@@H]1CSSC[C@H](NC(=O)[C@H](C)N)C(=O)N[C@H](Cc2ccc(C#Cc3ccccc3)cc2)C(=O)N[C@@H](Cc2c[nH]c3ccccc23)C(=O)N[C@@H](CCCCN)C(=O)N[C@@H](Cc2ccc(O)cc2)C(=O)N1)C(=O)O | 8.27 | 7.74 |  |  |  | 
CC(C)[C@H](NC(=O)[C@@H]1CSSC[C@H](NC(=O)[C@H](C)N)C(=O)N[C@H](Cc2ccc(I)cc2)C(=O)N[C@@H](Cc2c[nH]c3ccccc23)C(=O)N[C@@H](CCCCN)C(=O)N[C@@H](Cc2ccc(O)cc2)C(=O)N1)C(=O)O | 8.49 | 7.89 |  |  |  | 
CC(C)[C@H](NC(=O)[C@@H]1CSSC[C@H](NC(=O)[C@H](C)N)C(=O)N[C@@H](Cc2ccc(-c3ccccc3)cc2)C(=O)N[C@@H](Cc2c[nH]c3ccccc23)C(=O)N[C@@H](CCCCN)C(=O)N[C@@H](Cc2ccc(O)cc2)C(=O)N1)C(=O)O |  |  | 7.77 | 6.95 | 8.14 | 7.46
CC(C)[C@H](NC(=O)[C@@H]1CSSC[C@H](NC(=O)[C@H](C)N)C(=O)N[C@H](Cc2ccc(-c3ccccc3)cc2)C(=O)N[C@@H](Cc2c[nH]c3ccccc23)C(=O)N[C@@H](CCCCN)C(=O)N[C@@H](Cc2ccc(O)cc2)C(=O)N1)C(=O)O | 8.17 | 8.55 |  |  |  | 
